Experimental data: patent US4201784A, “Substituted 2-[2'-(5"-nitrofuryl-2")vinyl-and 4'-(5"-nitrofuryl-2"-1,3-butadieryl]quinoline-4-carboxylic acid amides and salts thereof” (Institut Organicheskogo Sinteza Akademii Nauk Latviiskoi SSR, priority 1977, dated 1980)
Entries after “also recorded” stand apart in the source; their conditions may differ.

How the values were obtained:
acatol-1 = assay: Antitumor activity, large intestine adenocarcinoma acatol-1; type: in vivo, mice
Protocol: (§1) Apart from the tests on Ehrlich ascitic tumor, giniquine was studied on twelve more inoculated tumors. Seven tumors (melanoma B16, sarcoma AK, large intestine carcinoma acatol-1, sarcoma 180, adenocarcinoma 755, Lewis lung carcinoma and sarcoma 37) were inoculated subcutaneously with 50 mg of tumoral cells per mouse. Four tumors (lymphatic leukemies L 5178, L 5178Y, L 1210 and P-388) were inoculated intraperitoneally with 10^6 cells per mouse. One tumor (La, hemocytoblastosis) was inoculated intraperitoneally by injecting 50 mg of cell suspension of spleen and liver of mice suffering La hemocytoblastosis, per mouse. Giniquine was injected intraperitoneally five times for seven days: 1,2,3,4,7 days or 3,4,5,6,7 days after the implantation of tumor. The rate of deceleration of the tumor growth was established 14 days after the ultimate injection of giniquine; life of test animals was recorded for 60 days.

sarcoma 180 = assay: Antitumor activity, sarcoma 180; type: in vivo, mice
Protocol: as §1

[1] = system: lymphatic leukemia L 5178Y; assay: Antitumor activity, lymphatic leukemia L 5178Y; type: in vivo, mice
Protocol: as §1

Ehrlich ascitic tumor = assay: Influence of fluorafur on antitumor activity of giniquine, Ehrlich ascitic tumor; type: in vivo, mice
Protocol: In some experiments the influence of the known preparation fluorofur on the antitumoral activity of giniquine was studied. […] The tests were made on Ehrlich ascitic tumor. The preparations were injected 1,2,3,4 and 7 days after the implantation of tumor. Giniquine was injected intraperitoneally and fluorafur-subcutaneously.
giniquine was injected intraperitoneally, and fluorafursubcutaneously.

LD50, intact mice = conditions: mouse, in vivo, ip, intraperitoneal
[2] = Biological availability, ascites of mice with Ehrlich ascitic carcinoma; type: in vivo
Protocol: The biological availability of giniquine was studied on common white male rats with a mass of 150-200 g and common white male mice with a mass of 25-30 g. The test began seven days after Ehrlich ascitic carcinoma was inoculated to the animals.
Giniquine was injected intraperitoneally in 100 mg/kg doses, using distilled water as a solvent. The animals were slaughtered at preset time intervals (5,15,30 and 60 minutes) and a biological material (blood and liver for rats and ascites for mice) was taken for analysis. To separate ascitic fluid from the tumor cells, ascites was centrifuged at 2000 r.p.m. for 10 minutes. The precipitate was washed with a mixture of physiological solution and heparin and was again centrifuged under the same conditions, 20% homogenates in distilled water were prepared from ascitic cells.
Giniquine was extracted from the biological material with chloroform.
The extraction procedure comprised the following stages: 0.1 ml of ethyl alcohol were added to 1 ml of tested sample and the solution was thoroughly mixed with 0.5 ml of a saturated potassium carbonate solution, then 4 ml of chloroform was added. Closed test tubes were vigorously shaken on a rocker for one hour. After the shaking, the samples were centrifuged at 5000 r.p.m. for ten minutes. The chloroform layer was used for analysis. Daylight was avoided.
Concentration of the preparation in biological samples was determined by spectrophotometry at 400 nm using molar absorption factor (ε0.10^-3 =36.04).
The results were expressed in μg/ml of sample. Minimum sensitivity of the method was 1.1 μg/ml.

Spleen = assay: In vivo biosynthesis of DNA, RNA and protein in spleen; set-up: species or system mice; conditions: for Incorporation of 2-^14 C-leucine in protein / Incorporation of 2-^14 C-thymidine in DNA: intraperitoneal 100 mg/kg
Protocol: The influence of giniquine on biosynthetic processes in the in vivo tests was studied on common white mice of a mass of 25-35 g with Ehrlich ascitic tumor.
The mice were divided into two groups. The animals in the first group were given a single injection of the preparation in differing doses, and the animals in the second group were treated with distilled water. Three series of experiments were conducted. In the first series of tests (16 mice) the preparation was injected in a dose of 100 mg/kg ([…] dose), and the animals were decapitated one hour after the injection; in the second test series (16 mice) the animals were slaughtered 3 hours after the injection with other conditions being the same. In the third test series (35 mice) the influence of giniquine on plastic metabolism in tumor cells and normal tissues was studied 24 hours after the injection of a 0.33% solution of the preparation in a dose of 28 mg/kg (therapeutical dose).
Labeled precursors of nucleic acids and protein were injected intraperitoneally one hour before the slaughter of the animals (50 μc/100 g). Ascitic fluid, as well as liver and spleen, mucous membrane of small intestine, brain, kidneys and lungs were taken for analysis. 10% suspension was prepared from tumor cells, and 10% homogenates were prepared from tissues in a physiological solution.
Tumor cells and tissue homogenates for precipitation of nucleic acids were treated with 57% perchloric acid (10:1). Acid-soluble fraction was removed by washing the precipitate twice with 5 ml of 5% perchloic acid with subsequent centrifuging at 2000 g. Nucleic acids were hydrolyzed by the Schneider method. Radioactivity of DNA and RNA fractions was measured by means of a liquid scintillation counter. The quantity of DNA and RNA was determined by spectrophotometry: the quantity of DNA was determined with diphenylamine, and RNA- with orcin.
To prepare protein hydrolysate, the suspension of tumoral cells and homogenates of normal tissues were treated with cool 10% trichloracetic acid (1:4), with subsequent centrifuging at 2000 g for ten minutes. The precipitate was washed twice with 5 ml of 10% trichloracetic acid. Lipoids were removed by a consecutive treatment of the precipitate with ethanol, saturated solution of sodium acetate, a mixture of ethanol and ether (3:1) and ether. To prepare protein hyhdrolysate, 4 ml of 0.3N KOH were added to the precipitate, and the mixture was placed into a thermostatic chamber at 37° C. for 60 minutes. The radioactivity was measured by means of a liquid scintillation counter. Protein was quantitatively determined by spectrophotometry using a microbiuret reaction.

[3] = BALB/c female mice, intraperitoneal, days 3,4,5,6,7, optim. daily dose 10.0 mg/kg
[4] = 24 hours, intraperitoneal 28 mg/kg

SMILES: CCN(CC)CCCC(C)NC(=O)c1cc(C=Cc2ccc([N+](=O)[O-])o2)nc2ccccc12 (stereo not drawn) [giniquine, 2-[2'-(5"-nitrofuryl-2")vinyl]quinoline-4-carboxylic acid (α-methyl-δ-diethylaminobutyl)amide triphosphate]
- Deceleration of tumor growth (acatol-1; [3]): 38%
- Max. prolongation of life (acatol-1; [3]): 25%
- antitumor effect / sensitivity (in words) (acatol-1; acatol-1): slight antitumor effect
- Deceleration of tumor growth (sarcoma 180; common female mice, intraperitoneal, days 3,4,5,6,7, optim. daily dose 6.0 mg/kg): 37%
- Max. prolongation of life (sarcoma 180; common female mice, intraperitoneal, days 3,4,5,6,7, optim. daily dose 10.0 mg/kg): 23%
- antitumor effect / sensitivity (in words) (sarcoma 180; sarcoma 180): slight antitumor effect
- Max. life prolong. ([1]; BDF1 female mice, intraperitoneal, days 1,2,3,4,7, optimum daily dose 6.0 mg/kg): 5%
- sensitivity (in words) ([1]; L-5178Y): practically insensitive
- Life prolongation (Ehrlich ascitic tumor; Test No. 1, giniquine 3.6 mg/kg daily): 55%
- Life prolongation (Ehrlich ascitic tumor; Test No. 1, giniquine 6.0 mg/kg daily): 67%
- Life prolongation (Ehrlich ascitic tumor; Test No. 1, giniquine 10.0 mg/kg daily): 38%
- Life prolongation (Ehrlich ascitic tumor; Test No. 1, giniquine 17.0 mg/kg daily): -5%
- Life prolongation (Ehrlich ascitic tumor; Test No. 2, giniquine 3.6 mg/kg daily): 45%
- Life prolongation (Ehrlich ascitic tumor; Test No. 2, giniquine 6.0 mg/kg daily): 98%
- Life prolongation (Ehrlich ascitic tumor; Test No. 2, giniquine 10.0 mg/kg daily): 5%
- Life prolongation (Ehrlich ascitic tumor; Test No. 2, giniquine 17.0 mg/kg daily): -48%
- LD50 (LD50, intact mice; single injection, female): 33 mg/kg
- LD50 (LD50, intact mice; single injection, male): 30 mg/kg
- LD50 (LD50, intact mice; ten injections, female): 8 mg/kg
- LD50 (LD50, intact mice; ten injections, male): 7.3 mg/kg
- concentration in tumoral cells versus ascitic fluid (in words) ([2]; 60 minutes): also greater than that in ascitic fluid
- time of maximum concentration in ascitic cells ([2]; intraperitoneal 100 mg/kg): five minutes
- concentration in ascitic cells versus ascitic fluid ([2]; intraperitoneal 100 mg/kg, five minutes): four times greater
- accumulation (in words) ([2]; intraperitoneal injection): mainly accumulates in ascitic cells
- Cmax at 5 min ([2]; mouse, ascitic cells, ip, intraperitoneal 100 mg/kg, five minutes, read-out: maximum concentration in ascitic cells): 40000 ng/mL
- concentration at 5 min ([2]; mouse, ascitic fluid, ip, intraperitoneal 100 mg/kg, five minutes): 10000 ng/mL
- Incorporation of 2-^14 C-leucine in protein (Spleen; 1 h): 97.0 % of control
- Incorporation of 2-^14 C-thymidine in DNA (Spleen; 1 h): 120.0 % of control
- Incorporation of 2-^14 C-leucine in protein (Spleen; 3 h): 40.0 % of control
- Incorporation of 2-^14 C-thymidine in DNA (Spleen; 3 h): 116.0 % of control
- Incorporation of specific precursors, DNA (Spleen; [4]): 330.0 % of control
- Incorporation of specific precursors, Protein (Spleen; [4]): 93.0 % of control
- Incorporation of specific precursors, RNA (Spleen; [4]): 162.0 % of control
- inhibition at 100 mg/kg (Spleen; Mus musculus, 3 h, three hours, 100 mg/kg): 60%
- inhibition of biosynthesis of protein (in words) (Spleen; one hour, 100 mg/kg): not observed or inappreciable
- stimulation of biosynthesis of DNA (Spleen; one hour, 100 mg/kg): 20%
- stimulation of biosynthesis of DNA (Spleen; three hours, 100 mg/kg): 16%
- germicidal activity (Germicidal activity): exhibits a germicidal activity; also recorded: combines in itself both actions
